Measured values published in ChEMBL document CHEMBL1154222, “Ceratodictyols, 1-glyceryl ethers from the red alga-sponge association Ceratodictyon spongiosum/Haliclona cymaeformis” (J Nat Prod, 2009).

System: HeLa
Test: Cytotoxicity against human HeLa cells
Format: functional, cell-based

For CCCCCCCCCCC(=O)/C=C/CCCOC[C@@H](O)CO [CERATODICTYOL A], the IC50 was 67 µM.

CCCCCCCCC/C=C/C(=O)CCCCOC[C@@H](O)CO [CERATODICTYOL B] showed an IC50 of 67 µM.
